Reference: patent US9833497B2, “Human originated EGF domain proteins and use of the same” (CHENGDU SOURCEBIO LIMITED-LIABILITY COMPANY, priority 2013, dated 2017)

system: E. coli BL21; experiment: MIC against Gram-negative bacteria: E. coli BL21; format: cell-based; details: 96-well plate, 5×10^5 CFU/mL, 37° C., 10 h
Outline: (§1)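 Antibacterial activity of purified human EGF domain proteins: two-fold concentration series, triplicate wells, LB broth, 5×10^5 CFU/mL bacteria, 37° C shaking incubation. The lowest concentration without growth defines the MIC.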

Substance | MIC E. coli BL21 [µg/mL]
PRT677 (ETDECRLNQNICGHGECVPGPPDYSCHCNPGYRSHPQHRYCV; listed as Homo sapiens) | 25
PRT640 (DMDECQDPSSCIDGQCVNTEGSYNCFCTHPMVLDASE; listed as Homo sapiens) | 25
PRT648 (DIDECLNPSTCPDEQCVNSPGSYQCVPCTEGFRGWNGQCL; listed as Homo sapiens) | 25

system: Proteus vulgaris; experiment: MIC against Gram-negative bacteria: Proteus vulgaris; format: cell-based; details: 96-well plate, 5×10^5 CFU/mL, 37° C., 10 h
Outline: as §1

Substance | MIC P. vulgaris [µg/mL]
PRT677 (ETDECRLNQNICGHGECVPGPPDYSCHCNPGYRSHPQHRYCV; listed as Homo sapiens) | 12.5
PRT640 (DMDECQDPSSCIDGQCVNTEGSYNCFCTHPMVLDASE; listed as Homo sapiens) | 12.5
PRT648 (DIDECLNPSTCPDEQCVNSPGSYQCVPCTEGFRGWNGQCL; listed as Homo sapiens) | 50

system: Aeromonas hydrophila; experiment: MIC against Gram-negative bacteria: Aeromonas hydrophila; format: cell-based; details: 96-well plate, 5×10^5 CFU/mL, 37° C., 10 h
Outline: as §1

Substance | MIC A. hydrophila [µg/mL]
PRT677 (ETDECRLNQNICGHGECVPGPPDYSCHCNPGYRSHPQHRYCV; listed as Homo sapiens) | 12.5
PRT640 (DMDECQDPSSCIDGQCVNTEGSYNCFCTHPMVLDASE; listed as Homo sapiens) | 50
PRT648 (DIDECLNPSTCPDEQCVNSPGSYQCVPCTEGFRGWNGQCL; listed as Homo sapiens) | 50

system: Pseudomonas aeruginosa; experiment: MIC against Gram-negative bacteria: Pseudomonas aeruginosa; format: cell-based; details: 96-well plate, 5×10^5 CFU/mL, 37° C., 10 h
Outline: as §1

Substance | MIC P. aeruginosa [µg/mL]
PRT677 (ETDECRLNQNICGHGECVPGPPDYSCHCNPGYRSHPQHRYCV; listed as Homo sapiens) | 12.5
PRT640 (DMDECQDPSSCIDGQCVNTEGSYNCFCTHPMVLDASE; listed as Homo sapiens) | 50
PRT648 (DIDECLNPSTCPDEQCVNSPGSYQCVPCTEGFRGWNGQCL; listed as Homo sapiens) | 50

system: Klebsiella pneumonia; experiment: MIC against Gram-negative bacteria: Klebsiella pneumonia; format: cell-based; details: 96-well plate, 5×10^5 CFU/mL, 37° C., 10 h
Outline: as §1

Substance | MIC K. pneumonia [µg/mL]
PRT677 (ETDECRLNQNICGHGECVPGPPDYSCHCNPGYRSHPQHRYCV; listed as Homo sapiens) | 50
PRT640 (DMDECQDPSSCIDGQCVNTEGSYNCFCTHPMVLDASE; listed as Homo sapiens) | 12.5
PRT648 (DIDECLNPSTCPDEQCVNSPGSYQCVPCTEGFRGWNGQCL; listed as Homo sapiens) | 25

system: Serratia marcescens; experiment: MIC against Gram-negative bacteria: Serratia marcescens; format: cell-based; details: 96-well plate, 5×10^5 CFU/mL, 37° C., 10 h
Outline: as §1

Substance | MIC S. marcescens [µg/mL]
PRT677 (ETDECRLNQNICGHGECVPGPPDYSCHCNPGYRSHPQHRYCV; listed as Homo sapiens) | 50
PRT640 (DMDECQDPSSCIDGQCVNTEGSYNCFCTHPMVLDASE; listed as Homo sapiens) | 25
PRT648 (DIDECLNPSTCPDEQCVNSPGSYQCVPCTEGFRGWNGQCL; listed as Homo sapiens) | 12.5

system: Enterobacter cloacae; experiment: MIC against Gram-negative bacteria: Enterobacter cloacae; format: cell-based; details: 96-well plate, 5×10^5 CFU/mL, 37° C., 10 h
Outline: as §1

Substance | MIC E. cloacae [µg/mL]
PRT677 (ETDECRLNQNICGHGECVPGPPDYSCHCNPGYRSHPQHRYCV; listed as Homo sapiens) | 25
PRT640 (DMDECQDPSSCIDGQCVNTEGSYNCFCTHPMVLDASE; listed as Homo sapiens) | 25
PRT648 (DIDECLNPSTCPDEQCVNSPGSYQCVPCTEGFRGWNGQCL; listed as Homo sapiens) | 12.5

system: Proteus mirabilis; experiment: MIC against Gram-negative bacteria: Proteus mirabilis; format: cell-based; details: 96-well plate, 5×10^5 CFU/mL, 37° C., 10 h
Outline: as §1

Substance | MIC P. mirabilis [µg/mL]
PRT677 (ETDECRLNQNICGHGECVPGPPDYSCHCNPGYRSHPQHRYCV; listed as Homo sapiens) | 50
PRT640 (DMDECQDPSSCIDGQCVNTEGSYNCFCTHPMVLDASE; listed as Homo sapiens) | 50
PRT648 (DIDECLNPSTCPDEQCVNSPGSYQCVPCTEGFRGWNGQCL; listed as Homo sapiens) | 12.5

system: E. coli DH5α; experiment: Antibacterial activity: MIC and growth curve against E. coli DH5α in 96-well plate; format: cell-based; details: minimal inhibitory concentration against E. coli DH5α; 96-well plate, 5×10^5 CFU/mL, 37° C., judged after 8 h
Outline: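 Log-phase bacteria (OD600 ~0.5) resuspended in LB at 5×10^5 CFU/mL, exposed to recombinant protein at 50, 25, 12.5 μg/mL final in triplicate, 37 °C shaking at 175 rpm. OD600 read every 30 min; MIC is lowest concentration showing no growth.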

Substance | MIC [µg/mL]
PRT677 (ETDECRLNQNICGHGECVPGPPDYSCHCNPGYRSHPQHRYCV; listed as Homo sapiens) | 50
PRT640 (DMDECQDPSSCIDGQCVNTEGSYNCFCTHPMVLDASE; listed as Homo sapiens) | 12.5
PRT648 (DIDECLNPSTCPDEQCVNSPGSYQCVPCTEGFRGWNGQCL; listed as Homo sapiens) | 12.5

system: Moraxella catarrhalis; experiment: MIC against Gram-negative bacteria: Moraxella catarrhalis; format: cell-based; details: 96-well plate, 5×10^5 CFU/mL, 37° C., 10 h
Outline: as §1

Substance | MIC M. catarrhalis [µg/mL]
PRT677 (ETDECRLNQNICGHGECVPGPPDYSCHCNPGYRSHPQHRYCV; listed as Homo sapiens) | 25
PRT640 (DMDECQDPSSCIDGQCVNTEGSYNCFCTHPMVLDASE; listed as Homo sapiens) | 25
PRT648 (DIDECLNPSTCPDEQCVNSPGSYQCVPCTEGFRGWNGQCL; listed as Homo sapiens) | 50

system: Citrobacter diversus; experiment: MIC against Gram-negative bacteria: Citrobacter diversus; format: cell-based; details: 96-well plate, 5×10^5 CFU/mL, 37° C., 10 h
Outline: as §1

Substance | MIC C. diversus [µg/mL]
PRT677 (ETDECRLNQNICGHGECVPGPPDYSCHCNPGYRSHPQHRYCV; listed as Homo sapiens) | 25
PRT640 (DMDECQDPSSCIDGQCVNTEGSYNCFCTHPMVLDASE; listed as Homo sapiens) | 12.5
PRT648 (DIDECLNPSTCPDEQCVNSPGSYQCVPCTEGFRGWNGQCL; listed as Homo sapiens) | 12.5
